In US4882349A, “Pyrrolacetic amides having antiinflammatory activity” (priority 1982, dated 1989):

Legend:
[1] = system: cough provoked by mechanical stimulation of the tracheal bifurcation mucosa; test: antitussive activity, mechanically provoked coughing; format: in vivo, albino Guinea-pigs; conditions: 1 h after administration
Procedure: The antitussive effect on albino Guinea-pigs weighing 300 g was evaluated using the method described by Y. Kase (Selected Pharmacological Testing Methods, p.363, Marcel Dekker Inc., New York, 1968). Each dose was tested in a group of animals with a Y cannula inserted into the trachea. In order to provoke coughing, the mucosa of the tracheal bifurcation was mechanically stimulated by insertion of a wild boar's hair through an opening in the cannula, while the other opening was connected to a kymograph to plot the amplitude and/or frequency. The reduction in the number of coughs was evaluated at one hour after administration of the compounds under examination by following the plottings for twenty minutes and comparing the response of the control animals.

[2] = system: carrageenin-induced oedema; test: carrageenin-induced oedema test (anti-inflammatory activity); format: in vivo, albino male Wistar rats
[3] = system: phenyl-p-quinone-induced writhing (abdominal contractions); test: phenylquinone-induced writhing test (analgesic activity), compound given 30 min before phenyl-p-quinone; format: in vivo, male Wistar rats
How it was run: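 Male Wistar rats (110±5 g), fasted 14 h, received test compounds orally or parenterally in 0.5% CMC/saline vehicle 30 min before 2 ml of 0.36% phenyl-p-quinone in 5% ethanol.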

[4] = system: mucus secreted by the respiratory airway; test: antisecretory activity, respiratory mucus secretion; format: in vivo, albino male New Zealand rabbits; conditions: vs control group
Procedure: The experiment was carried out in accordance with the method described by Y. Kase (Folia Pharmacol. Jap. 73: 605, 1977) for the purpose of investigating whether or not the compounds under examination determine changes in the volume of the mucus secreted by the respiratory airway. Groups of four albino male New Zealand rabbits (mean weight: 2.5 kg) were used for testing each dose per single group. The animals were anesthetized with urethane (1.1 g/ks b.w.) via the intraperitoneal route and a Y cannula was inserted into the trachea. In order to stimulate mucous secretion a humidifier was connected to the cannula permitting the animals to spontaneously breathe air with 100% humidity at a constant temperature of 39° C. The secreted mucus was collected through another opening in the cannula and measured at three and six hours after administration of the compounds under examination or of the vehicle alone administered in the order of […] (controls). Calculation of the increase or decrease in mucous secretion was based upon the percentage differences between the groups treated with the compounds under examination and the control group. Table VII gives the percentage differences in mucous secretion, and the tested compounds with relative doses and routes of administration.

[5] = 25 mg/Kg, Table IV (route not given), 2 h
[6] = 25 mg/Kg, Table IV (route not given), 4 h
[7] = 25 mg/Kg, Table IV (route not given), 6 h
[8] = 25 mg/Kg, Table IV (route not given), 24 h
[9] = 25 mg/Kg, Table IV (route not given), 48 h
[10] = 25 mg/Kg, Table IV (route not given), 72 h
[11] = 50 mg/Kg, Table IV (route not given), 2 h
[12] = 50 mg/Kg, Table IV (route not given), 4 h
[13] = 50 mg/Kg, Table IV (route not given), 6 h
[14] = 50 mg/Kg, Table IV (route not given), 24 h
[15] = 50 mg/Kg, Table IV (route not given), 48 h
[16] = 50 mg/Kg, Table IV (route not given), 72 h
[17] = 100 mg/Kg, Table IV (route not given), 2 h
[18] = 100 mg/Kg, Table IV (route not given), 4 h
[19] = 100 mg/Kg, Table IV (route not given), 6 h
[20] = 100 mg/Kg, Table IV (route not given), 24 h
[21] = 100 mg/Kg, Table IV (route not given), 48 h
[22] = 100 mg/Kg, Table IV (route not given), 72 h

With `CCOC(=O)c1ccc(NC(=O)Cc2ccc(C(=O)c3ccc(C)cc3)n2C)cc1` [Compound 1-h, 1-methyl-5-p-toluoylpyrrole-2-N-(4-carboxyethyl-phenyl) acetamide] the “% inhibition, cough amplitude” value ([1]; 50 mg/Kg i.p.) was 20%, the “% inhibition, cough frequency” value ([1]; 50 mg/Kg i.p.) was 18% and the “% inhibition, cough amplitude” value ([1]; 50 mg/Kg per os) was 13%. The “% inhibition, cough frequency” value ([1]; 50 mg/Kg per os) was 10%, the “% inhibition, cough amplitude” value ([1]; 75 mg/Kg i.p.) was 29% and the “% inhibition, cough frequency” value ([1]; 75 mg/Kg i.p.) was 35%. The “% inhibition, cough amplitude” value ([1]; 75 mg/Kg per os) was 22%, the “% inhibition, cough frequency” value ([1]; 75 mg/Kg per os) was 18% and the “% inhibition, cough amplitude” value ([1]; 100 mg/Kg i.p.) was 45%. The “% inhibition, cough frequency” value ([1]; 100 mg/Kg i.p.) was 53%, the “% inhibition, cough amplitude” value ([1]; 100 mg/Kg per os) was 40% and the “% inhibition, cough frequency” value ([1]; 100 mg/Kg per os) was 50%. It also gave an oedema % inhibition ([2]; 25 mg/Kg per os, 2 h) of 28.9%, an oedema % inhibition ([2]; 25 mg/Kg per os, 4 h) of 30.1% and an oedema % inhibition ([2]; 25 mg/Kg per os, 6 h) of 29.0%. It also gave an oedema % inhibition ([2]; 25 mg/Kg per os, 24 h) of 8.3%, an oedema % inhibition ([2]; 25 mg/Kg per os, 48 h) of 0.0% and an oedema % inhibition ([2]; 25 mg/Kg per os, 72 h) of 0.0%. For the same compound, the oedema % inhibition [2, 5] was 30.1%, the oedema % inhibition [2, 6] was 27.9% and the oedema % inhibition [2, 7] was 29.0%. The oedema % inhibition [2, 8] was 13.0%, the oedema % inhibition [2, 9] was 0.0% and the oedema % inhibition [2, 10] was 0.0%. For the same compound, the oedema % inhibition ([2]; 50 mg/Kg per os, 2 h) was 48.9%, the oedema % inhibition ([2]; 50 mg/Kg per os, 4 h) was 49.0% and the oedema % inhibition ([2]; 50 mg/Kg per os, 6 h) was 47.1%. It also gave an oedema % inhibition ([2]; 50 mg/Kg per os, 24 h) of 9.9%, an oedema % inhibition ([2]; 50 mg/Kg per os, 48 h) of 0.0% and an oedema % inhibition ([2]; 50 mg/Kg per os, 72 h) of 0.0%. It also gave an oedema % inhibition [2, 11] of 50.2%, an oedema % inhibition [2, 12] of 51.0% and an oedema % inhibition [2, 13] of 47.0%. It also gave an oedema % inhibition [2, 14] of 15.1%, an oedema % inhibition [2, 15] of 0.0% and an oedema % inhibition [2, 16] of 0.0%. It also gave an oedema % inhibition ([2]; 100 mg/Kg per os, 2 h) of 66.9%, an oedema % inhibition ([2]; 100 mg/Kg per os, 4 h) of 67.1% and an oedema % inhibition ([2]; 100 mg/Kg per os, 6 h) of 69.0%. The oedema % inhibition ([2]; 100 mg/Kg per os, 24 h) was 22.0%, the oedema % inhibition ([2]; 100 mg/Kg per os, 48 h) was 13.0% and the oedema % inhibition ([2]; 100 mg/Kg per os, 72 h) was 0.0%. For the same compound, the oedema % inhibition [2, 17] was 70.1%, the oedema % inhibition [2, 18] was 68.9% and the oedema % inhibition [2, 19] was 66.0%. For the same compound, the oedema % inhibition [2, 20] was 19.0%, the oedema % inhibition [2, 21] was 10.0% and the oedema % inhibition [2, 22] was 0.0%. The “% Protection” value ([3]; 5 mg/Kg i.p.) was 18.0%, the “% Protection” value ([3]; 5 mg/Kg per os) was 16.2% and the “% Protection” value ([3]; 10 mg/Kg i.p.) was 44.0%. For the same compound, the “% Protection” value ([3]; 10 mg/Kg per os) was 37.9%, the “% Protection” value ([3]; 20 mg/Kg i.p.) was 79.0% and the “% Protection” value ([3]; 20 mg/Kg per os) was 70.1%. For the same compound, the “% difference in mucus secretion” value ([4]; 50 mg/Kg i.p., 3 h) was -8%, the “% difference in mucus secretion” value ([4]; 50 mg/Kg i.p., 6 h) was -3% and the “% difference in mucus secretion” value ([4]; 50 mg/Kg per os, 3 h) was -5%. For the same compound, the “% difference in mucus secretion” value ([4]; 50 mg/Kg per os, 6 h) was 0.0%, the “% difference in mucus secretion” value ([4]; 75 mg/Kg i.p., 3 h) was -26% and the “% difference in mucus secretion” value ([4]; 75 mg/Kg i.p., 6 h) was -20%. For the same compound, the “% difference in mucus secretion” value ([4]; 75 mg/Kg per os, 3 h) was -19%, the “% difference in mucus secretion” value ([4]; 75 mg/Kg per os, 6 h) was -16% and the “% difference in mucus secretion” value ([4]; 100 mg/Kg i.p., 3 h) was -41%. For the same compound, the “% difference in mucus secretion” value ([4]; 100 mg/Kg i.p., 6 h) was -38%, the “% difference in mucus secretion” value ([4]; 100 mg/Kg per os, 3 h) was -39% and the “% difference in mucus secretion” value ([4]; 100 mg/Kg per os, 6 h) was -32%.
For `Cc1ccc(C(=O)c2ccc(CC(=O)N3CCOCC3)n2C)cc1` [Compound 3-a, 1-methyl-5-p-toluoylpyrrole-2-N-(4-morpholinyl) acetamide], the “% inhibition, cough amplitude” value ([1]; 50 mg/Kg i.p.) was 20%, the “% inhibition, cough frequency” value ([1]; 50 mg/Kg i.p.) was 15% and the “% inhibition, cough amplitude” value ([1]; 50 mg/Kg per os) was 15%. For the same compound, the “% inhibition, cough frequency” value ([1]; 50 mg/Kg per os) was 16%, the “% inhibition, cough amplitude” value ([1]; 75 mg/Kg i.p.) was 30% and the “% inhibition, cough frequency” value ([1]; 75 mg/Kg i.p.) was 16%. The “% inhibition, cough amplitude” value ([1]; 75 mg/Kg per os) was 30%, the “% inhibition, cough frequency” value ([1]; 75 mg/Kg per os) was 18% and the “% inhibition, cough amplitude” value ([1]; 100 mg/Kg i.p.) was 40%. For the same compound, the “% inhibition, cough frequency” value ([1]; 100 mg/Kg i.p.) was 56%, the “% inhibition, cough amplitude” value ([1]; 100 mg/Kg per os) was 35% and the “% inhibition, cough frequency” value ([1]; 100 mg/Kg per os) was 45%. The oedema % inhibition ([2]; 25 mg/Kg per os, 2 h) was 27.1%, the oedema % inhibition ([2]; 25 mg/Kg per os, 4 h) was 29.0% and the oedema % inhibition ([2]; 25 mg/Kg per os, 6 h) was 32.3%. For the same compound, the oedema % inhibition ([2]; 25 mg/Kg per os, 24 h) was 7.1%, the oedema % inhibition ([2]; 25 mg/Kg per os, 48 h) was 0.0% and the oedema % inhibition ([2]; 25 mg/Kg per os, 72 h) was 0.0%. It also gave an oedema % inhibition [2, 5] of 28.9%, an oedema % inhibition [2, 6] of 32.7% and an oedema % inhibition [2, 7] of 34.0%. The oedema % inhibition [2, 8] was 10.1%, the oedema % inhibition [2, 9] was 0.0% and the oedema % inhibition [2, 10] was 0.0%. The oedema % inhibition ([2]; 50 mg/Kg per os, 2 h) was 46.0%, the oedema % inhibition ([2]; 50 mg/Kg per os, 4 h) was 49.1% and the oedema % inhibition ([2]; 50 mg/Kg per os, 6 h) was 48.0%. It also gave an oedema % inhibition ([2]; 50 mg/Kg per os, 24 h) of 13.4%, an oedema % inhibition ([2]; 50 mg/Kg per os, 48 h) of 0.0% and an oedema % inhibition ([2]; 50 mg/Kg per os, 72 h) of 0.0%. It also gave an oedema % inhibition [2, 11] of 50.7%, an oedema % inhibition [2, 12] of 48.9% and an oedema % inhibition [2, 13] of 42.0%. The oedema % inhibition [2, 14] was 11.2%, the oedema % inhibition [2, 15] was 0.0% and the oedema % inhibition [2, 16] was 0.0%. For the same compound, the oedema % inhibition ([2]; 100 mg/Kg per os, 2 h) was 60.0%, the oedema % inhibition ([2]; 100 mg/Kg per os, 4 h) was 55.2% and the oedema % inhibition ([2]; 100 mg/Kg per os, 6 h) was 69.7%. For the same compound, the oedema % inhibition ([2]; 100 mg/Kg per os, 24 h) was 18.1%, the oedema % inhibition ([2]; 100 mg/Kg per os, 48 h) was 0.0% and the oedema % inhibition ([2]; 100 mg/Kg per os, 72 h) was 0.0%. For the same compound, the oedema % inhibition [2, 17] was 69.8%, the oedema % inhibition [2, 18] was 69.0% and the oedema % inhibition [2, 19] was 63.0%. For the same compound, the oedema % inhibition [2, 20] was 13.1%, the oedema % inhibition [2, 21] was 0.0% and the oedema % inhibition [2, 22] was 0.0%. For the same compound, the “% Protection” value ([3]; 5 mg/Kg i.p.) was 18.0%, the “% Protection” value ([3]; 5 mg/Kg per os) was 16.0% and the “% Protection” value ([3]; 10 mg/Kg i.p.) was 48.0%. For the same compound, the “% Protection” value ([3]; 10 mg/Kg per os) was 39.0%, the “% Protection” value ([3]; 20 mg/Kg i.p.) was 76.0% and the “% Protection” value ([3]; 20 mg/Kg per os) was 65.0%. The “% difference in mucus secretion” value ([4]; 50 mg/Kg i.p., 3 h) was -10%, the “% difference in mucus secretion” value ([4]; 50 mg/Kg i.p., 6 h) was -7% and the “% difference in mucus secretion” value ([4]; 50 mg/Kg per os, 3 h) was -7%. For the same compound, the “% difference in mucus secretion” value ([4]; 50 mg/Kg per os, 6 h) was -8%, the “% difference in mucus secretion” value ([4]; 75 mg/Kg i.p., 3 h) was -20% and the “% difference in mucus secretion” value ([4]; 75 mg/Kg i.p., 6 h) was -18%. For the same compound, the “% difference in mucus secretion” value ([4]; 75 mg/Kg per os, 3 h) was -15%, the “% difference in mucus secretion” value ([4]; 75 mg/Kg per os, 6 h) was -10% and the “% difference in mucus secretion” value ([4]; 100 mg/Kg i.p., 3 h) was -38%. The “% difference in mucus secretion” value ([4]; 100 mg/Kg i.p., 6 h) was -29%, the “% difference in mucus secretion” value ([4]; 100 mg/Kg per os, 3 h) was -32% and the “% difference in mucus secretion” value ([4]; 100 mg/Kg per os, 6 h) was -25%.
